Patent US9592228B2, “Treatment of inflammation using alpha 7 receptor-binding agonists” (THE FEINSTEIN INSTITUTE FOR MEDICAL RESEARCH, priority 2002, dated 2017)
“And” between values parts separate entries of the source, which are not always exact repeats. Equal values may be shown once. Read-outs that look alike come from different tables or passages of the source.

Tests used:
[1] = system: LPS induced TNF-α release from murine RAW 264.7 macrophage-like cells; test: cells; assay type: cell-based
[2] = system: TNF production by LPS-stimulated wild type peritoneal macrophages; test: TNF production by wild type peritoneal macrophages; assay type: cell-based, mouse; settings: 4 h, ELISA, mean ± s.e.m., n = 8
[3] = system: TNF production by LPS-stimulated nicotinic acetylcholine receptor α7 subunit knockout peritoneal macrophages; assay type: cell-based, mouse
[4] = system: Balb/c mice; settings: mouse, in vivo
[5] = system: C57 B/6 mice; settings: mouse, in vivo
[6] = system: C57 B/6 mice; settings: mouse, in vivo; remark: listed apart in the source
[7] = molecular target: α-bungarotoxin-binding nicotinic receptors on primary human macrophages (Homo sapiens, UniProt P36544)
[8] = system: macrophages; settings: data not shown
[9] = agonist 1 μM added 5-10 min before LPS (100 ng/ml)
[10] = agonist 10 μM added 5-10 min before LPS (100 ng/ml)

α-bungarotoxin-binding nicotinic receptors on primary human macrophages, sequence (P36544 23-502): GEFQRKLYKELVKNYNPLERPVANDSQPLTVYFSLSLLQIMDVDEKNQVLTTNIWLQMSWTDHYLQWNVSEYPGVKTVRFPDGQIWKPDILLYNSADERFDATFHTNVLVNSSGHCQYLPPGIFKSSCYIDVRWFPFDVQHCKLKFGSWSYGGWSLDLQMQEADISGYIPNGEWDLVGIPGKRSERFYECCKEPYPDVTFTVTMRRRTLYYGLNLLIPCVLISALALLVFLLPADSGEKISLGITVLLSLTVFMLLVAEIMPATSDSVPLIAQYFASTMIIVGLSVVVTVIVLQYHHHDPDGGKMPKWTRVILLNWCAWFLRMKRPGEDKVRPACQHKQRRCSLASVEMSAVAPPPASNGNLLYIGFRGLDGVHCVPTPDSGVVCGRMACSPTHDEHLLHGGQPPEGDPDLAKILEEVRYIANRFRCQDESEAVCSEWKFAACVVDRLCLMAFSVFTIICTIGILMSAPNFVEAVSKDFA

O=C1NCC2(CN3CCC2CC3)O1 (single isomer, unassigned; (-)) [Compound (VII), (−)-spiro[1-azabicyclo[2.2.2]octane-3,5′-oxazolidin-2′-one]]
TNF-α release from RAW 264.7 cells at the higher concentrations [1]: inhibit TNF-α release | decrease of TNF-α release compared to control cells [1]: more than four times

CC(=O)OCC[N+](C)(C)C [Ach, acetylcholine]
TNF [2, 9]: 10.3 ± 1.1 ng/mL | TNF [2, 10]: 5.7 ± 0.9 ng/mL | TNF [3]: 20.4 ± 3.8 ng/mL and 21.4 ± 2.4 ng/mL

COc1ccc(/C=C2\CCCN=C2c2cccnc2)c(OC)c1 [Compound (V), 3-2,4-dimethoxybenzylidene anabaseine]
mice survived on Day 14 [4]: 91% | inhibition of TNF-α release [1]: dose dependently inhibits

COc1cc(O)ccc1/C=C1\CCCN=C1c1cccnc1 [Compound (VI), 3-(4-hydroxy-2-methoxybenzylidene)anabaseine]
mice survived on Day 14 [4]: 82% | percent inhibition of TNF-α [1]: dose dependently inhibits | IC50 ([1]; Mus musculus, RAW264.7, read-out: estimated IC50, inhibition of TNF-α): ~900 nM | decrease of the level of circulating TNF-α compared to vehicle control [5]: approximately 50% | colon length compared to control mice [6]: slightly greater | colon weight (wet weight) compared to control condition [6]: decreased

CN1CCCC1c1cccnc1 (stereo not shown) [nicotine]
effect of pretreatment on intensity of α-bungarotoxin binding [7]: markedly reduced | TNF [2, 9]: 5.2 ± 0.9 ng/mL | TNF [2, 10]: 7.3 ± 1.0 ng/mL | TNF [3]: 17.8 ± 0.6 ng/mL and 17.4 ± 2.9 ng/mL | TNF production by α7 knockout macrophages in the presence of the agonist [3]: produced TNF normally | inhibition of TNF-α release ([1]; 0.001-100 uM added five minutes before LPS (500 ng/ml), 4 hours, ELISA, FIG. 7): dose dependently inhibits | inhibition of LPS-induced TNF release in RAW264.7 ([1]; data not shown): significantly inhibit | calcium influx [8]: induces transient calcium influx

α-bungarotoxin
binding of α-bungarotoxin on the macrophage surface [7]: Strong binding
